Measured values reported in patent US12065438B2, “Substituted tricyclic compounds as indoleamine 2,3-dioxygenase inhibitors” (Merck Sharp & Dohme LLC, priority 2019, dated 2024).
pIC50: −log10 of the molar value.

Each compound was assayed against IDO1 (Homo sapiens, UniProt P14902) (assay: IDO1 Cellular Assay in HeLa Cells Stimulated with IFNγ). Conditions: HeLa cells stimulated with IFNγ 100 ng/mL, 300 uM L-tryptophan, about 48 hours, fluorescence readout; read-out: IDO1 HELA Cell Assay, IC50.
Chain of IDO1 (P14902 whole entry): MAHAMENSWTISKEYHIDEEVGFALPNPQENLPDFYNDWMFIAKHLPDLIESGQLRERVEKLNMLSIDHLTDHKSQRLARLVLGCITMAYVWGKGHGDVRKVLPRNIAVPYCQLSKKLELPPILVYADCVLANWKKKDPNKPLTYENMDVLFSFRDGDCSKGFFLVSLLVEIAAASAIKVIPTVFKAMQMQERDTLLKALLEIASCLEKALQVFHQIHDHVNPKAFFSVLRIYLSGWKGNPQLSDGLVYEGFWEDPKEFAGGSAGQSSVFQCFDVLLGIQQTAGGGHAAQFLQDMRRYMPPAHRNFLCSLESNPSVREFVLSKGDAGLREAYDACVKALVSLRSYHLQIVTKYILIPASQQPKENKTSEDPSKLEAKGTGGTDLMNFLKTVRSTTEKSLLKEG
Type: cell-based
Set-up: endogenous in cells; host or cells: HeLa cells stimulated with IFNγ
Protocol: Biological Assays IDO1 Cellular Assay in HeLa Cells Stimulated with IFNγ HeLa cells were cultured in complete HeLa culture medium (90% EMEM, 10% heat-inactivated fetal bovine serum) and expanded to about 1×10^9 cells. The cells were then collected and frozen down at 1×10^7 cells/vial in 1 mL frozen medium (90% complete HeLa culture medium, 10% DMSO). Compounds to be tested were serially diluted in ten 3-fold steps in DMSO starting from 10 mM DMSO stocks in Echo low volume plate(s). Compound dilutions or DMSO alone were then dispensed from the dilution plate(s) into Greiner black 384-well assay plate(s) (catalog #781086, 50 nL/well) using an Echo 550 acoustic liquid handler (Labcyte). Frozen HeLa cells were thawed and transferred into HeLa assay medium (99% complete HeLa culture medium, 1% Pen/Strep) with 20 mL medium/vial of cells. The cells were spun down at 250 g in a table top centrifuge for 5 min and suspended in same volume of HeLa assay medium. The cells were then counted and adjusted to a density of 2×10^5 cells/mL in HeLa assay medium. Sterile L-tryptophan were added to the cells with final concentration of 300 uM L-tryptophan. A small aliquot (2 mL/plate) of HeLa cells were set aside and were not treated with IFNγ, to serve as the Max-E control. The rest of HeLa cells were added with sterile IFNγ (Cat #285-IF, R & D systems) with a final concentration of 100 ng/mL. HeLa cells with and without IFNγ were dispensed to the respective wells of 384-well assay plates containing the compounds. The plates were incubated for about 48 hours at a 37° C., 5% CO2 incubator. Afterwards, 12 μL of 0.5 M methyl isonipecotate in dimethyl sulfoxide were added into each well and the plates were sealed and incubated at 37° C. without CO2 overnight. The plates were centrifuged for 1 min at 200×g. The resulting fluorescence was measured in a Spectramax plate reader (Molecular Devices) with a 400 nm excitation filter and a 510 nm emission filter. The fluorescence intensity of each well was corrected for the background observed in wells with non-IFNγ-treated cells and was expressed as a fraction of the intensity observed in wells of IFNγ-treated cells and DMSO only. Potencies were calculated by […] least squares fit to the four parameter logistic IC50 equation.

Row | Compound | pIC50
1 | 4-fluoro-N-(2-((6aS,7aR)-5-(2-methylpyrimidin-4-yl)-6,6a,7,7a-tetrahydro-5H-cyclopropa[c][1,5]naphthyridin-2-yl)propan-2-yl)benzamide [Example 31] | 7.09
2 | Cc1nccc(N2CC3CC3c3nc(C(C)(C)NC(=O)c4ccc(F)cc4)ccc32)n1 (racemic) [Example 29, 4-fluoro-N-(2-(5-(2-methylpyrimidin-4-yl)-6,6a,7,7a-tetrahydro-5H-cyclopropa[c][1,5]naphthyridin-2-yl)propan-2-yl)benzamide] | 7.05
3 | Cc1nccc(N2CC3CC3c3nc(C4(NC(=O)c5ccc(F)cc5)CC4C)ccc32)n1 (racemic) [Example 47, 4-fluoro-N-(2-methyl-1-(5-(2-methylpyrimidin-4-yl)-6,6a, 7,7a-tetrahydro-5H-cyclopropa[c][1, 5]naphthyridin-2-yl)cyclopropyl)benzamide] | 7.28
4 | O=C(C1CC1)N1CC2CC2c2cc(C3(C(=O)Nc4ccc(F)cc4)CCC3)ccc21 (single isomer, unassigned) [Example 3, 1-(3-(cyclopropanecarbonyl)-1a,2,3,7b-tetrahydro-1H-cyclopropa[c]quinolin-6-yl)-N-(4-fluorophenyl)cyclobutanecarboxamide] | 7.36
5 | Cc1nccc(N2c3ccc(C4(NC(=O)c5ccc(F)cc5)CC4)cc3C3CC32)n1 (single isomer, unassigned) [Example 9, 4-fluoro-N-(1-(2-(2-methylpyrimidin-4-yl)-1,1a,2,6b-tetrahydrocyclopropa[b]indol-5-yl)cyclopropyl)benzamide] | 8.09
6 | CC(C)(NC(=O)c1ccc(F)cc1)c1ccc2c(n1)[C@H]1C[C@H]1CN2C(=O)OC1CC1 (single isomer, unassigned) [Example 34] | 6.66
7 | CCC(NC(=O)c1ccc(F)cc1)c1ccc2c(n1)C1CC1CN2C(=O)OC1CC1 (single isomer, unassigned) [Example 36, cyclopropyl 2-(1-(4-fluorobenzamido)propyl)-6,6a,7,7a-tetrahydro-5H-cyclopropa[c][1,5]naphthyridine-5-carboxylate] | 6.68
8 | CC(C)(C)OC(=O)N1CC2CC2c2nc(C3(NC(=O)c4ccc(F)cc4)CC3)ccc21 (centres unmarked) [Example 10, tert-butyl 2-(1-(4-fluorobenzamido)cyclopropyl)-6,6a,7,7a-tetrahydro-5H-cyclopropa[c][1,5]naphthyridine-5-carboxylate] | 7.01
9 | O=C(NC1(c2ccc3c(n2)C2CC2CN3)CC1)c1ccc(F)cc1 (centres unmarked) [Example 11, 4-fluoro-N-(1-(6,6a,7,7a-tetrahydro-5H-cyclopropa[c][1,5]naphthyridin-2-yl)cyclopropyl)benzamide] | 5.64
10 | COC(=O)c1nccc(N2CC3CC3c3nc(C4(NC(=O)c5ccc(F)cc5)CC4)ccc32)n1 (centres unmarked) [Example 17, methyl 4-(2-(1-(4-fluorobenzamido)cyclopropyl)-6,6a,7,7a-tetrahydro-5H-cyclopropa[c][1,5]naphthyridin-5-yl)pyrimidine-2-carboxylate] | 8.04
11 | O=C(NC1(c2ccc3c(n2)[C@H]2C[C@H]2CN3C(=O)OC2CCOCC2)CC1)c1ccc(F)cc1 [Example 22, tetrahydro-2H-pyran-4-yl (6aR,7aS)-2-(1-(4-fluorobenzamido)cyclo-propyl)-6,6a,7,7a-tetra-hydro-5H-cyclopropa[c]-[1,5]naphthyridine-5-carboxylate] | 7.21
12 | O=C(NC1(c2ccc3c(n2)[C@@H]2C[C@@H]2CN3C(=O)OC2CCOCC2)CC1)c1ccc(F)cc1 [Example 23, tetrahydro-2H-pyran-4-yl (6aS,7aR)-2-(1-(4-fluoro-benzamido)cyclopropyl)-6,6a,7,7a-tetrahydro-5H-cyclopropa[c][1,5]-naphthyridine-5-carboxylate] | 7.77
13 | CC(NC(=O)c1ccc(F)cc1)c1ccc2c(n1)C1CC1CN2C(=O)OC(C)(C)C (centres unmarked) [Example 24, tert-butyl 2-(1-(4-fluorobenzamido)ethyl)-6,6a,7,7a-tetrahydro-5H-cyclopropa[c][1,5]naphthyridine-5-carboxylate] | 7.68
14 | C[C@H](NC(=O)c1ccc(F)cc1)c1ccc2c(n1)[C@H]1C[C@H]1CN2C(=O)OC1CC1 [Example 25, cyclopropyl (6aR,7aS)-2-((S)-1-(4-fluorobenzamido)-ethyl)-6,6a,7,7a-tetrahydro-5H-cyclopropa[c][1,5]-naphthyridine-5-carboxylate] | 7.81
15 | C[C@H](NC(=O)c1ccc(F)cc1)c1ccc2c(n1)[C@@H]1C[C@@H]1CN2C(=O)OC1CC1 [Example 26, cyclopropyl (6aS,7aR)-2-((S)-1-(4-fluorobenzamido)-ethyl)-6,6a,7,7a-tetrahydro-5H-cyclopropa[c][1,5]-naphthyridine-5-carboxylate] | 7.46
16 | C[C@@H](NC(=O)c1ccc(F)cc1)c1ccc2c(n1)[C@H]1C[C@H]1CN2C(=O)OC1CC1 [Example 28, cyclopropyl (6aR,7aS)-2-((R)-1-(4-fluorobenzamido)-ethyl)-6,6a,7,7a-tetrahydro-5H-cyclopropa[c][1,5]-naphthyridine-5-carboxylate] | 7.53
17 | Cc1nccc(N2C[C@@H]3C[C@@H]3c3nc([C@]4(NC(=O)c5ccc(F)cc5)C[C@H]4C)ccc32)n1 [Example 39, 4-fluoro-N-((1S,2R)-2-methyl-1-((6aR,7aS)-5-(2-methyl-pyrimidin-4-yl)-6,6a,7,7a-tetra-hydro-5H-cyclopropa[c][1,5]-naphthyridin-2-yl)cyclopropyl)-benzamide] | 7.98

Stronger by pIC50, values ahead:

Row | pIC50 | Compound
18 | 8.17 | CCC(NC(=O)c1ccc(F)cc1)c1ccc2c(n1)C1CC1CN2c1ccnc(C)n1 (racemic) [Example 38, 4-fluoro-N-(1-(5-(2-methyl-pyrimidin-4-yl)-6,6a,7,7a-tetrahydro-5H-cyclopropa[c]-[1,5]naphthyridin-2-yl)propyl)-benzamide]
19 | 8.82 | Cc1nccc(N2C[C@@H]3C[C@@H]3c3cc(C4(NC(=O)c5ccc(F)cc5)CC4)ccc32)n1 (single isomer, unassigned) [Example 2]
20 | 8.54 | Cc1nccc(N2c3ccc(C4(NC(=O)c5ccc(F)cc5)CC4)cc3C3CC32)n1 (single isomer, unassigned) [Example 8, 4-fluoro-N-(1-(2-(2-methylpyrimidin-4-yl)-1,1a,2,6b-tetrahydrocyclopropa[b]indol-5-yl)cyclopropyl)benzamide]
21 | 8.72 | Cc1nccc(N2C[C@@H]3C[C@@H]3c3nc(C4(NC(=O)c5ccc(F)cc5)CC4)ccc32)n1 (stereo in doubt) [Example 12, 4-fluoro-N-(1-(5-(2-methylpyrimidin-4-yl)-6,6a,7,7a-tetrahydro-5H-cyclopropa[c][1,5]naphthyridin-2-yl)cyclopropyl)benzamide]
22 | 8.97 | Cc1nccc(N2C[C@H]3C[C@H]3c3nc(C4(NC(=O)c5ccc(F)cc5)CC4)ccc32)n1 (stereo in doubt) [Example 13, 4-fluoro-N-(1-(5-(2-methylpyrimidin-4-yl)-6,6a,7,7a-tetrahydro-5H-cyclopropa[c][1,5]naphthyridin-2-yl)cyclopropyl)benzamide]
23 | 8.78 | Cc1nccc(N2CC3CC3c3cc(C4(NC(=O)c5ccc(F)cc5)CC4)ccc32)n1 [Example 1, 4-fluoro-N-(1-((1aR,7bS)-3-(2-methylpyrimidin-4-yl)-1a,2,3,7b-tetrahydro-1H-cyclopropa[c]quinolin-6-yl)cyclopropyl)benzamide]
24 | 8.33 | Cc1nccc(N2c3ccc(C4(NC(=O)c5ccc(F)cc5)CC4)cc3CC3CCC32)n1 (centres unmarked) [Example 5, 4-fluoro-N-(1-(3-(2-methylpyrimidin-4-yl)-1,2,2a,3,8,8a-hexahydrocyclobuta[b]quinolin-6-yl)cyclopropyl)benzamide]
25 | 8.55 | Cc1nccc(N2C[C@@H]3C[C@@H]3c3nc([C@@]4(NC(=O)c5ccc(F)cc5)C[C@@H]4C)ccc32)n1 [Example 40, 4-fluoro-N-((1R,2S)-2-methyl-1-((6aR,7aS)-5-(2-methyl-pyrimidin-4-yl)-6,6a,7,7a-tetra-hydro-5H-cyclopropa[c][1,5]-naphthyridin-2-yl)cyclopropyl)-benzamide]
26 | 8.63 | Cc1nccc(N2C[C@@H]3C[C@@H]3c3nc([C@@]4(NC(=O)c5ccc(F)cc5)C[C@H]4C)ccc32)n1 [Example 41, 4-fluoro-N-((1R,2R)-2-methyl-1-((6aR,7aS)-5-(2-methyl-pyrimidin-4-yl)-6,6a,7,7a-tetra-hydro-5H-cyclopropa[c][1,5]-naphthyridin-2-yl)cyclopropyl)-benzamide]
